Test results reported in ChEMBL document CHEMBL3507680, “University of Dundee, Gates Library screen for HepG2 cell viability”.

Assay: Human HepG2 cell viability assay in 384 well format
Type: toxicity, cell-based
Parameters: dose 125 nL, time 70.5 hour; concentration not given beside the values
Conditions: HepG2 cells, read-out: Inhibition

Cn1cc(C(=O)N2CCO[C@@H]3CN(C4CCC4)C[C@@H]3C2)cn1
cytotoxicity at 70.5 h: -3.32%

CS(=O)(=O)NC1CCc2[nH]c(=O)ccc2C1 (configuration not stated)
cytotoxicity at 70.5 h: -4.24%

CO[C@H]1CC[C@H]2[C@H]1OCCN2C(=O)CC1=CCCCC1
cytotoxicity at 70.5 h: -2.24%

CCO[C@@H]1CC[C@H]2[C@H]1OCCN2C(=O)CC1=CCCCC1
cytotoxicity at 70.5 h: -2.71%

Cc1ncccc1NC(=O)[C@@H]1CCO[C@@H]2CCN(c3ccncn3)C[C@H]21
cytotoxicity at 70.5 h: -6.04%

CC(=O)N1CC[C@H]2OCC[C@@H](C(=O)Nc3cccnc3C)[C@H]2C1
cytotoxicity at 70.5 h: -3.55%

O=C(c1cccnc1)N1CCO[C@@H]2CNC[C@@H]21
cytotoxicity at 70.5 h: -4.67%

CCOCc1nn(C)c2c1CN(CCO)CC2
cytotoxicity at 70.5 h: -6.16%

CN1CCCN(C(=O)c2nc3c(o2)CN(S(C)(=O)=O)C3)CC1
cytotoxicity at 70.5 h: -14.5%

CC(C)NC(=O)N1CC[C@H]2N(C)CC[C@@]2(C(=O)Nc2cccnc2)CC1
cytotoxicity at 70.5 h: -10.8%

Cc1nc(CN2CCC3(C2)CN(C(=O)c2ccc[nH]2)C3)cs1
cytotoxicity at 70.5 h: -5.84%

O=C(NCC1CC1)c1cc2c(s1)CCN2c1ncccn1
cytotoxicity at 70.5 h: -0.353%

O=C(NCCN1CCCC1)c1cc2c(s1)CCN2c1ncccn1
cytotoxicity at 70.5 h: -5.02%

CCOCC1CN(C(=O)c2cccs2)Cc2cnn(CC3CC3)c21 (configuration not stated)
cytotoxicity at 70.5 h: -6.77%

COCCN1CCN(S(C)(=O)=O)Cc2cccnc21
cytotoxicity at 70.5 h: -5.85%

O=c1ccc2c(n1CC1CC1)CCN(c1ncccn1)CC2
cytotoxicity at 70.5 h: -4.49%

CCS(=O)(=O)N1CCN(C)c2ncccc2C1
cytotoxicity at 70.5 h: -7.16%

CC(=O)N1CCO[C@@H]2CN(S(=O)(=O)c3ccc(C)cc3)CC[C@@H]2C1
cytotoxicity at 70.5 h: 11.2%

CCN(C(=O)c1nc2c(s1)CCCN2C(C)=O)C(C)C
cytotoxicity at 70.5 h: 2.41%

c1cc(-c2n[nH]cc2-c2ccnc(N3CCCCCC3)n2)ccn1
cytotoxicity at 70.5 h: 0.607%

CC(C)[C@H](CO)Nc1nccc(-c2c[nH]nc2-c2ccncc2)n1
cytotoxicity at 70.5 h: -3.12%

Cc1ncc(-c2ccnc(NCCc3ccc(F)cc3)n2)c(=O)[nH]1
cytotoxicity at 70.5 h: -12.9%

CC(=O)N1CCC(n2nccc2-c2cnc(NCCO)nc2)CC1
cytotoxicity at 70.5 h: -9.44%

CNc1nc2c(s1)C(=O)CN(C(=O)NCCc1ccccc1)C2
cytotoxicity at 70.5 h: 17.6%

CC[C@@H](CO)Nc1nccc(-c2cnc3sc(C)cn3c2=O)n1
cytotoxicity at 70.5 h: 15.2%

CC(=O)Nc1nc2c(s1)C1(CCCC1)Nc1ccccc1S2
cytotoxicity at 70.5 h: -3.55%

Cc1ncc(-c2ccnc(N3CC[C@H](O)C3)n2)c(-c2cccnc2)n1
cytotoxicity at 70.5 h: -6.52%

CC(C)CNc1nccc(-c2cnc3sc(Cl)cn3c2=O)n1
cytotoxicity at 70.5 h: -6.64%

O=c1[nH]c(-c2ccncc2)ncc1-c1ccnc(N2CCOCC2)n1
cytotoxicity at 70.5 h: -2.39%

C[C@@H](CO)Nc1nccc(-c2cnc3sc(Cl)cn3c2=O)n1
cytotoxicity at 70.5 h: -8.27%

CC(C)[C@H](NS(C)(=O)=O)C(=O)NCc1cc(-c2ccco2)n[nH]1
cytotoxicity at 70.5 h: -13.8%

CCNc1nc(-c2cccnc2)c(-c2ccnc(NCCO)n2)s1
cytotoxicity at 70.5 h: -13.3%

CC(=O)N1CCC(n2ccc(-c3cnc(NCC(C)C)nc3)n2)CC1
cytotoxicity at 70.5 h: -5.12%

CC[C@H](C)Nc1ncc(-c2ccn(C3CCN(C(C)=O)CC3)n2)cn1
cytotoxicity at 70.5 h: -5.16%

Cc1csc2ncc(-c3ccnc(N4CCC[C@@H]4CO)n3)c(=O)n12
cytotoxicity at 70.5 h: -2.68%

Cc1cn2c(=O)c(-c3ccnc(NC4CCOCC4)n3)cnc2s1
cytotoxicity at 70.5 h: -4.12%

CC[C@@H](C)[C@@H](N)C(=O)Nc1cccc(-c2cnc(NCCO)nc2)c1
cytotoxicity at 70.5 h: -7.48%

c1cncc(-c2nc(C3CC3)ncc2-c2ccnc(N3CCCC3)n2)c1
cytotoxicity at 70.5 h: -2.86%

CC(C)Nc1nc2c(s1)C(=O)CN(C(=O)NCc1ccccc1)C2
cytotoxicity at 70.5 h: 1.44%

CC(C)CC(=O)N1CC(=O)c2sc(Nc3ccc(F)cc3)nc2C1
cytotoxicity at 70.5 h: 1.95%

Cc1cc2nc(C3CCCCC3)c(-c3ccnc(NCCO)n3)cn2n1
cytotoxicity at 70.5 h: -5.35%

CC(C)CC(=O)N1CC(=O)c2sc(Nc3ccc(C#N)cc3)nc2C1
cytotoxicity at 70.5 h: 0.0296%

CC(C)CC(=O)N1CC(=O)c2sc(NCCc3ccccc3)nc2C1
cytotoxicity at 70.5 h: 0.452%

CC(=O)Nc1nc2c(s1)C1(CCN(C)CC1)Nc1ccccc1S2
cytotoxicity at 70.5 h: 3.04%

CNCC(=O)Nc1ccc(-c2cnc(NCCS(C)(=O)=O)nc2)cc1
cytotoxicity at 70.5 h: -0.605%

CC[C@H](C)[C@H](N)C(=O)Nc1nc(-c2cnc(N(C)CCO)nc2)cs1
cytotoxicity at 70.5 h: -1.04%

CS(=O)(=O)NCc1cc(-c2cc(F)cc(F)c2)nc(N2CCOCC2)n1
cytotoxicity at 70.5 h: -13.9%

CN1CCCN(c2nccc(-c3c[nH]c4ccc(Br)cc34)n2)CC1
cytotoxicity at 70.5 h: 9.19%

Cc1[nH]c2ccccc2c1-c1ccnc(NCCN2CCOCC2)n1
cytotoxicity at 70.5 h: 25.2%

Cc1csc2ncc(-c3ccnc(N4CCCC[C@@H]4CO)n3)c(=O)n12
cytotoxicity at 70.5 h: 20.9%

O=c1c(-c2ccnc(NC3CCOCC3)n2)cnc2sc(Cl)cn12
cytotoxicity at 70.5 h: 1.36%

Cc1ncc(-c2ccnc(N3CCCCC3)n2)c(=O)[nH]1
cytotoxicity at 70.5 h: -7.09%

CNc1nc2c(s1)C(=O)CN(C(=O)NCc1ccccc1)C2
cytotoxicity at 70.5 h: -9.93%

CCNc1nc2c(s1)C(=O)CN(C(=O)NCCc1ccccc1)C2
cytotoxicity at 70.5 h: -17.7%

COc1ccc(OC)c(C(C(=O)O)N2CCSCC2)c1 (configuration not stated)
cytotoxicity at 70.5 h: -4.28%

CCOc1ccc(-c2ccnc(C)n2)cc1C(=O)O
cytotoxicity at 70.5 h: -4.51%

Cc1noc(C)c1S(=O)(=O)N1C[C@@H](C(=O)O)[C@H](c2ccccn2)C1
cytotoxicity at 70.5 h: -10.9%

Cc1nccn1CCCn1c(=O)cnc2ccccc21
cytotoxicity at 70.5 h: -10.5%

CN1CCCCC1C(=O)N1CCN(c2ccccc2C#N)CC1 (configuration not stated)
cytotoxicity at 70.5 h: -2.64%

CC(C)c1cc(CN(C)C(=O)CN2CCC(C(N)=O)CC2)no1
cytotoxicity at 70.5 h: -14.7%

CCCn1ncc(C(=O)N2CCN(C3CCCC3)CC2)c1C
cytotoxicity at 70.5 h: -3.82%

Cc1ccc2[nH]c(CN3CC[C@@H](N4CCN(C)CC4)[C@H](O)C3)c(C)c2c1
cytotoxicity at 70.5 h: -6.53%

CC(O)c1cccc(N2CCC3(CCC(=O)N(CC(N)=O)C3)CC2)n1 (configuration not stated)
cytotoxicity at 70.5 h: -11.2%

CNc1cc(C)nc(NC2CCCN(C3Cc4ccccc4C3)C2)n1 (configuration not stated)
cytotoxicity at 70.5 h: 28.6%

CC(C)Cc1n[nH]c(C2CC(=O)N(CC(C)C)C2)n1 (configuration not stated)
cytotoxicity at 70.5 h: -5.1%

CC(C)N[C@@H]1CC[C@@H]1NC(=O)c1ccccc1OC(F)(F)C(F)F
cytotoxicity at 70.5 h: 14.2%

CCn1cc(CN2CCCn3nc(CNS(C)(=O)=O)cc3C2)c(C)n1
cytotoxicity at 70.5 h: 13.3%

Cc1ccc(C(=O)N2CCN(C)C3(CCC(=O)N(C)CC3)C2)c(F)c1 (configuration not stated)
cytotoxicity at 70.5 h: -9.61%

CCCc1cncnc1N1CCC(NCc2ccc(O)cc2)CC1
cytotoxicity at 70.5 h: -2.53%

CCn1ccnc1CN(C)c1nc(-c2ccc(Cl)cc2)nc2c1CNC2
cytotoxicity at 70.5 h: -9.22%

Cc1nn(C)cc1-c1ccnc(N2CCN(c3cnccn3)CC2)n1
cytotoxicity at 70.5 h: -0.227%

O=C(c1cn2ccsc2n1)N1CCN(CC2CC2)[C@@H]2CS(=O)(=O)C[C@@H]21
cytotoxicity at 70.5 h: -10.5%

O=C(c1cn(CCN2CCCCC2)nn1)N1CCCCO1
cytotoxicity at 70.5 h: 11%

O=C1NC2(CCN(C(=O)c3ccc(Cl)cn3)CC2)CC1c1ccccc1 (configuration not stated)
cytotoxicity at 70.5 h: 8.76%

Nc1ncc(-c2csc(NC(=O)C[C@H]3COCCN3)n2)cn1
cytotoxicity at 70.5 h: -6.96%

CC(C)[C@H](N)CC(=O)Nc1nc(-c2cnc(N3CCOCC3)nc2)cs1
cytotoxicity at 70.5 h: -1.39%

O=C(C1CC(F)(F)C1)N1C[C@@H]2CN(CC3CC3)CCO[C@@H]2C1
cytotoxicity at 70.5 h: 26%

CC(=O)N1CCO[C@@H]2CN(S(=O)(=O)c3cccnc3)C[C@@H]2C1
cytotoxicity at 70.5 h: 0.618%

CC(C)NC1CCc2[nH]c(=O)ccc2C1 (configuration not stated)
cytotoxicity at 70.5 h: -3.78%

Cc1occc1C(=O)NCC1OCCc2cn(C)nc21 (configuration not stated)
cytotoxicity at 70.5 h: -3.82%

O=C(O)[C@]12CCCN(C3CCOC3)C[C@H]1CN(c1ncccn1)C2 (some centres not stated)
cytotoxicity at 70.5 h: -2.93%

Cn1nc(COCC2CC2)c2c1CCN(Cc1cccs1)C2
cytotoxicity at 70.5 h: -4.53%

O=C(c1ccccc1)N1CCCC2(CCN2Cc2cccc(F)c2)C1 (configuration not stated)
cytotoxicity at 70.5 h: -9.02%

COc1cc(N2CCC3(CCN(Cc4nccs4)CC3)C2)ncn1
cytotoxicity at 70.5 h: 30.8%

COCCN1CCOCC12CCN(c1cnccn1)CC2
cytotoxicity at 70.5 h: -6.94%

CCN1CCOCC12CCN(c1cnccn1)CC2
cytotoxicity at 70.5 h: -7.58%

Cc1noc(C)c1CN1CCOCC12CCN(c1cnccn1)CC2
cytotoxicity at 70.5 h: -6.5%

Cc1noc(C)c1CN1CCOCC12CCN(c1nccs1)CC2
cytotoxicity at 70.5 h: -8.54%

CS(=O)(=O)N1CCc2ccc(=O)n(CCN3CCCC3)c2CC1
cytotoxicity at 70.5 h: -6.85%

CN(C)CCn1c2c(ccc1=O)CC(NC(=O)NC1CCCC1)CC2 (configuration not stated)
cytotoxicity at 70.5 h: -6.88%

CN1CCN(C2COC3(CCN(c4ccc(C#N)cc4)CC3)C2)CC1 (configuration not stated)
cytotoxicity at 70.5 h: -6.07%

CN(C)CCn1c2c(ccc1=O)CC(NC(=O)c1ccsc1)CC2 (configuration not stated)
cytotoxicity at 70.5 h: 11.3%

CCN1CCn2c(-c3cccc(F)c3)cnc2C12CCN(C(C)=O)CC2
cytotoxicity at 70.5 h: 2.55%

c1ccc(OCC2C[C@@H]3[C@@H](C2)OCCN3Cc2ccoc2)nc1 (some centres not stated)
cytotoxicity at 70.5 h: -0.172%

COCCN1CCO[C@@H]2CN(S(=O)(=O)c3cccnc3)C[C@@H]2C1
cytotoxicity at 70.5 h: 3.84%

CC(C)N1CCC(N2CCC(C(=O)N(C)C)CC2)CC1
cytotoxicity at 70.5 h: 1.65%

Cc1oncc1C(=O)N1CC[C@H]2[C@H](C[C@@H](CN3CCCC3)N2C)C1
cytotoxicity at 70.5 h: -2.32%

CNC(=O)[C@@H]1C[C@H]2CN(Cc3csc(C)n3)C[C@H]2N1C(C)C
cytotoxicity at 70.5 h: -4.84%

Cc1ncccc1NC(=O)[C@@H]1CCO[C@@H]2CCN(c3ccccc3)C[C@@H]21
cytotoxicity at 70.5 h: -3.01%

CCN1CCC(N2CCC(C(=O)N(C)C)CC2)CC1
cytotoxicity at 70.5 h: -5.59%

Cc1noc(C)c1CN1C[C@H]2CN(Cc3cccc(F)c3)C[C@H]2C1
cytotoxicity at 70.5 h: -1.37%

COCCN1CCC2(CC1)CC(NCc1ccc(C)s1)c1ccccc12 (configuration not stated)
cytotoxicity at 70.5 h: 2.38%

Cc1noc(C)c1CN1CCO[C@H]2CN(Cc3cccc(F)c3)C[C@H]21
cytotoxicity at 70.5 h: -13.7%

CN(C)C(=O)COCC1CN(Cc2ccco2)Cc2ncn(C)c21 (configuration not stated)
cytotoxicity at 70.5 h: -0.299%

COCCN1Cc2nccn2CC(COCc2csc(C)n2)C1 (configuration not stated)
cytotoxicity at 70.5 h: -1.7%

CN(C)CCN1CCO[C@H]2CN(C(=O)c3ccsc3)C[C@H]21
cytotoxicity at 70.5 h: -6.87%

CN(C)C1CCC2(CCN(Cc3cccnc3)CC2)c2ccccc21 (configuration not stated)
cytotoxicity at 70.5 h: -3.39%
